Reference: PubChem BioAssay (NCI)
Where “and” joins values, the source holds several entries; their conditions need not be identical. Equal values may be shown once.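 Results reflect a 48-hour exposure of cells in 96-well plates to compound at five concentrations. GI50: concentration for 50% inhibition of growth. TGI marks complete inhibition of growth.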

Tests used:
Assay in all cases: DTP human tumour cell line panel, 48 h
HOP-62 NSCLC = test system: HOP-62 NSCLC
OVCAR-5 ovarian = test system: OVCAR-5 ovarian
OVCAR-4 ovarian = test system: OVCAR-4 ovarian
K-562 leukemia = test system: K-562 leukemia
SF-295 CNS = test system: SF-295 CNS
NCI-H226 lung = test system: NCI-H226 lung
MOLT-4 leukemia = test system: MOLT-4 leukemia
HT29 colon = test system: HT29 colon
SNB-75 CNS = test system: SNB-75 CNS
HCT-116 colon = test system: HCT-116 colon
SK-MEL-28 melanoma = test system: SK-MEL-28 melanoma
MCF7 breast = test system: MCF7 breast

| Compound | TGI (HOP-62 NSCLC) | TGI (OVCAR-5 ovarian) | TGI (OVCAR-4 ovarian) | TGI (K-562 leukemia) | TGI (SF-295 CNS) [µM] | TGI (NCI-H226 lung) [µM] | TGI (MOLT-4 leukemia) [µM] | TGI (HT29 colon) [µM] | TGI (SNB-75 CNS) [µM] | TGI (HCT-116 colon) [µM] | TGI (SK-MEL-28 melanoma) | GI50 (HOP-62 NSCLC) [µM] | GI50 (OVCAR-5 ovarian) [µM] | GI50 (OVCAR-4 ovarian) [µM] | GI50 (K-562 leukemia) | GI50 (SK-MEL-28 melanoma) | GI50 (MCF7 breast) | TGI (MCF7 breast) |
| --- | --- | --- | --- | --- | --- | --- | --- | --- | --- | --- | --- | --- | --- | --- | --- | --- | --- | --- |
| COC(=O)C(=C/c1ccc(OC)cc1)/C(C(=O)O)=C(/C)c1ccccc1 | > 100 µM | > 100 µM | > 100 µM | > 100 µM | > 100 | > 100 | > 100 | > 100 | > 100 | > 100 |  |  |  |  |  |  |  |  |
| COc1cc2c(cc1OC)C(O)[C@H](Br)C(C)(C)O2 (stereo not given in full) | > 100 µM | > 100 µM | > 100 µM | > 100 µM | > 100 | > 100 | > 100 | > 100 | > 100 | > 100 | > 100 µM |  |  |  |  |  |  |  |
| O=c1[nH]cc(COCC(F)(F)C(F)(F)C(F)(F)C(F)F)c(=O)[nH]1 | > 100 µM | > 100 µM |  | > 100 µM | > 100 |  | > 100 | > 100 | > 100 | > 100 | > 100 µM |  |  |  |  |  |  |  |
| C=C1C(=O)O[C@H]2[C@H]1[C@@H](OC(=O)C=C(C)C)CC1=C[C@@H](C[C@@]3(C)O[C@@H]23)OC1=O | 52.2 µM and 187 µM | 32.1 µM and 49 µM | 20.6 µM and 13.7 µM | 50.2 µM and 9.4 µM | 28.4 | 36.2 | 77.4 | 12.5 | 33.3 | 16.5 | 46 µM and 8.18 µM | 60.9 | 30 | 4.55 | 1.02 µM and 3.16 µM | 8.31 µM and 3.23 µM | 0.603 µM and 2.59 µM | 4.39 µM and 6.93 µM |
| Cc1ccc2c(c1CCCC(C)(C)O)C(=O)C(=O)C(C(C)C)=C2O |  |  | > 100 µM | > 100 µM | > 100 | > 100 | > 100 | > 100 | > 100 | > 100 | > 100 µM |  |  |  |  |  |  |  |
| Nc1ccc(C(=O)NN2C(=O)C(Cl)C2c2ccccc2Cl)cc1 (stereo not given) | 35.4 µM | 28.4 µM | 27.1 µM |  | 12.6 | 31.5 | 8.1 | 23.5 | 31.3 | 16.3 | 28.3 µM |  |  |  |  |  |  |  |
| CCCCCC(C[N+]1(C)CCOCC1)C(=O)/C=C/c1ccccc1 (stereo not given) | 69.2 µM | 37.3 µM | 15.9 µM | 18 µM | 21.6 | 25.6 | 27.4 | 10.3 | 15.7 | 11.7 | 30 µM |  |  |  |  |  |  |  |
| C=CCn1c(=O)n(CC=C)c(=O)n(CC=C)c1=O | > 100 µM | > 100 µM |  | > 100 µM | > 100 |  | > 100 |  |  | > 100 | > 100 µM |  |  |  |  |  |  |  |
| O=C1NC(=O)C(CCO)(c2ccccc2)C(=O)N1 | > 100 µM | > 100 µM | > 100 µM | > 100 µM | > 100 | > 100 | > 100 | > 100 | > 100 | > 100 | > 100 µM |  |  |  |  |  |  | > 100 µM |
| CC(=O)OCC1OC(Nc2ncc(-c3ccc(C)cc3)s2)C(OC(C)=O)C(OC(C)=O)C1OC(C)=O (stereo not given) | > 100 µM | > 100 µM | 60.6 µM | > 100 µM | > 100 | 91.4 | 65.3 | > 100 | > 100 | > 62.5 | > 100 µM |  |  |  |  |  |  | 35.8 µM |
| C/C(=C1/CCCC2(N=NCC2c2ccccc2)C1=O)c1ccccc1 (stereo not given) |  | > 100 µM | > 100 µM | 41.4 µM | > 100 | 41.3 | 48.1 | 56.7 | 99.7 | 53.3 | 73.2 µM |  |  |  |  |  |  |  |
| Cc1ccc(C2CC(c3ccco3)=NN2c2ccccc2)o1 (stereo not given) | > 100 µM | > 100 µM | > 100 µM | > 100 µM | > 100 | > 100 | > 100 | > 100 | > 100 | > 100 | > 100 µM |  |  |  |  |  |  |  |
| CCOC(=O)C(N=Nc1ccc(S(N)(=O)=O)cc1)C(C)=O (stereo not given) | > 100 µM | > 100 µM | > 100 µM | > 100 µM | > 100 | > 100 | > 100 | > 100 | > 100 | > 100 | > 100 µM |  |  |  |  |  |  |  |
| CCN1CCN(c2ccc(Nc3ccnc4ccc5nn(C)nc5c34)cc2)CC1 | 26.4 µM | 32.5 µM | 26.1 µM | > 100 µM | 25.5 | 26.2 | > 100 | 16.6 | 26.4 | 18.1 | 30.5 µM |  |  |  |  |  |  |  |
| COC(=O)C1OC(Oc2cc(O)c3c(=O)cc(-c4ccc(O)cc4)oc3c2)C(O)C(O)C1O (stereo not given) | > 100 µM | > 100 µM | > 100 µM | > 100 µM | > 100 | > 100 | > 100 | > 100 | > 100 | > 100 | > 100 µM |  |  |  |  |  |  | > 100 µM |
| O=C1C(Cl)C(c2ccccc2)N1n1cnc2ccccc2c1=O (stereo not given) | > 100 µM | > 100 µM | > 100 µM | > 100 µM | > 100 | > 100 | > 100 | > 100 | 82.4 | > 100 | > 100 µM |  |  |  |  |  |  |  |
